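Cells were grown in 96-well plates and exposed to each compound for 48 hours at five concentrations; endpoints were interpolated linearly between bracketing concentrations, or set to the highest concentration if not reached. GI50 marks 50% less growth. Definition used: TGI = concentration required for complete inhibition of growth.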
Assays:
Test in all cases: NCI anticancer screen, dose series, 48 h
DU-145 prostate = tested on: DU-145 prostate
MDA-MB-231 breast = tested on: MDA-MB-231 breast
HT29 colon = tested on: HT29 colon
MOLT-4 leukemia = tested on: MOLT-4 leukemia
HCT-116 colon = tested on: HCT-116 colon
SF-539 CNS = tested on: SF-539 CNS
PC-3 prostate = tested on: PC-3 prostate
SR leukemia = tested on: SR leukemia
NCI-H226 lung = tested on: NCI-H226 lung
SK-MEL-28 melanoma = tested on: SK-MEL-28 melanoma
SN12C renal = tested on: SN12C renal
MCF7 breast = tested on: MCF7 breast
NCI-H460 lung = tested on: NCI-H460 lung
UACC-62 melanoma = tested on: UACC-62 melanoma
786-0 renal = tested on: 786-0 renal
HS 578T breast = tested on: HS 578T breast
OVCAR-5 ovarian = tested on: OVCAR-5 ovarian
T-47D breast = tested on: T-47D breast
OVCAR-3 ovarian = tested on: OVCAR-3 ovarian
HL-60(TB) leukemia = tested on: HL-60(TB) leukemia
SNB-75 CNS = tested on: SNB-75 CNS
MDA-MB-435 = tested on: MDA-MB-435
SK-OV-3 ovarian = tested on: SK-OV-3 ovarian
RPMI-8226 leukemia = tested on: RPMI-8226 leukemia
ACHN renal = tested on: ACHN renal
A498 renal = tested on: A498 renal
U251 CNS = tested on: U251 CNS
EKVX NSCLC = tested on: EKVX NSCLC
HOP-62 NSCLC = tested on: HOP-62 NSCLC

## COC(=O)C(C)NP(=O)(OCc1ccc(Cn2cnc3c(N)ncnc32)cc1)Oc1ccccc1 (configuration not stated)
DU-145 prostate
  TGI: > 100 µM
MDA-MB-231 breast
  GI50: > 63.4 µM
  TGI: > 100 µM
HT29 colon
  GI50: > 67.8 µM
  TGI: > 100 µM
MOLT-4 leukemia
  GI50: 32.2 µM
  TGI: > 100 µM
HCT-116 colon
  GI50: 26 µM
  TGI: 63.4 µM
SF-539 CNS
  GI50: > 100 µM
  TGI: > 100 µM
PC-3 prostate
  GI50: 31.3 µM
  TGI: > 100 µM
SR leukemia
  GI50: > 100 µM
  TGI: > 100 µM
NCI-H226 lung
  GI50: > 93.5 µM
  TGI: > 100 µM
SK-MEL-28 melanoma
  GI50: 30.4 µM
  TGI: > 84.9 µM
SN12C renal
  GI50: 73.4 µM
  TGI: > 100 µM
MCF7 breast
  GI50: 36.8 µM
  TGI: > 100 µM
NCI-H460 lung
  GI50: 67.9 µM
  TGI: > 100 µM
UACC-62 melanoma
  GI50: 28.6 µM
  TGI: > 94.1 µM
786-0 renal
  GI50: > 100 µM
  TGI: > 100 µM
HS 578T breast
  GI50: 15.5 µM
  TGI: 49.7 µM
OVCAR-5 ovarian
  GI50: > 100 µM
  TGI: > 100 µM
T-47D breast
  GI50: > 56.7 µM
  TGI: > 100 µM
OVCAR-3 ovarian
  GI50: 34.7 µM
  TGI: > 82.1 µM
HL-60(TB) leukemia
  GI50: 79.9 µM
  TGI: > 100 µM
SNB-75 CNS
  GI50: 40.1 µM
  TGI: > 100 µM
MDA-MB-435
  GI50: 43 µM
  TGI: > 100 µM
SK-OV-3 ovarian
  GI50: > 100 µM
  TGI: > 100 µM
RPMI-8226 leukemia
  GI50: 17.1 µM
  TGI: 65.3 µM
ACHN renal
  GI50: > 100 µM
  TGI: > 100 µM
A498 renal
  GI50: > 100 µM
  TGI: > 100 µM
U251 CNS
  GI50: 37.3 µM
  TGI: > 100 µM
EKVX NSCLC
  GI50: > 81.2 µM
  TGI: > 100 µM
HOP-62 NSCLC
  GI50: > 68.6 µM
  TGI: > 100 µM
